Values joined by “and” are separate entries in the source; they are usually repeats but may differ in a detail not shown here. Equal values may be shown once. Where a name gives a salt, the structure may show the parent alone. Read-outs that look alike come from different tables or passages of the source.
How the values were obtained:
SUDHL10 = assay: Induction of cytotoxicity (Assay 6), SUDHL10; settings: read-out: Cytotox SUDHL10 [M] (median) IC50, CellTiter-Glo, 5 hours, SUDHL10
Protocol: Assay 6 Induction of Cytotoxicity Upon Treatment of Cells with Selected Compounds
Therefore, cytotoxicity assays were run in parallel in SUDHL5 and SUDHL10 cells.
The different cell lines were plated in culture medium (RPMI 1640 [GIBCO #22400-089] supplemented with 10% Fetal Bovine Serum) at a density of 3,300 cells in 30 μl/well in a sterile, solid black, flat bottom, polystyrene, TC-treated 384-well microplate (Corning #3571) using Multidrop Combi Reagent Dispenser. As a control, medium without cells was also added to the plate. Cells were incubated in a humidified incubator at 37° C. overnight. On the next day, the cells were treated with compounds (stock solution, 10 mM in DMSO) using the HP D300 Digital Dispenser in a concentration range of 3.3×10e-5 M (33 μM) to 5×10e-9 M (5 nM) in a single-dot curve with at least 16 dilutions and a DMSO concentration of 0.33%. Rim wells were excluded. The cells were incubated for 5 hours in a humidified incubator at 37° C. After this incubation, 30 μl of CellTiter-Glo® Luminescent Cell Viability reagent (Promega, G7573) was added to each well using the Multidrop Combi Reagent Dispenser, followed by 15 minutes incubation on a shaker at room temperature. Finally, luminescence was read at 0.1 ms, with a gain of 3000 using the PHERAstar FS microplate reader (BMG Labtech).

BCL-2 = BCL-2 (Homo sapiens (Human), UniProt P10415); assay: Protein-protein interaction assay BCL-2/Bad BH3 peptide (BCL-2 assay, TR-FRET); type: binding; settings: His-BCL-2 / Bad BH3 peptide, median
Sequence of BCL-2 (P10415 other isoform, or with tags, fused parts or gaps): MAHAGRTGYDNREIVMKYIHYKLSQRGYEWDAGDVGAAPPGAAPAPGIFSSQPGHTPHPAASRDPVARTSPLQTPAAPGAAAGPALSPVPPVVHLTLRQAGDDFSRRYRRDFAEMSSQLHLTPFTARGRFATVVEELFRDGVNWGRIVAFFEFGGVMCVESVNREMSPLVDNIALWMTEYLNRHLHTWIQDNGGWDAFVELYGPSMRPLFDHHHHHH
Procedure, shortened: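 His-BCL-2 (1-211, E. coli) at 1 nM preincubated 10 min at 22 °C with compound (11 concentrations, 0.1 nM-20 μM, duplicates), then 1 nM biotinylated Bad BH3 peptide added. After 1 h at 22 °C plus overnight at 4 °C, TR-FRET 665/620 ratio normalised to DMSO and no-BCL-2 controls, IC50 from 4-parameter fit.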

HMC-1-8 = assay: Antiproliferation assay (Assay 7), HMC-1-8; type: cell-based; settings: CellTiter-Glo, several values per example, read-out: Antiproli HMC-1-8 [M] IC50
Procedure, shortened: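 Luminescent ATP-based viability (CellTiter-Glo) measured after 72 hours of compound treatment at 37° C, alongside a time-zero plate read on the day of plating.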

Compound	IC50 (SUDHL10)	IC50 (BCL-2)	IC50 (HMC-1-8; 72 hours)	IC50 (SUDHL10; Homo sapiens, SU-DHL10, 5 h)	IC50 (HMC-1-8; 72 h)
Cc1c2c(nn1C)CN(C1CC1)S(=O)(=O)CCCn1c(C(=O)O)c(CCCOc3cccc4cc(F)ccc34)c3ccc(Cl)c-2c31 (single isomer, unassigned; enantiomer 1) [Example 42, (−)-4-chloro-14-cyclopropyl-7-{3-[(6-fluoro-1-naphthyl)oxy]propyl}-2,3-dimethyl-11,12,14,15-tetrahydro-2H,10H-pyrazolo[3′,4′:4,5][1,2,8]thiadiazacycloundecino[6,7,8-hi]indole-8-carboxylic acid 13,13-dioxide N-diethylamine salt (Enantiomer 1)]	3.5e-07 M	12 µM	5.9e-06 M and 3.8e-06 M		
Cc1c2c(nn1C)CN(C)S(=O)(=O)CCCn1c(C(=O)O)c(CCCOc3cccc4cc(F)ccc34)c3ccc(F)c-2c31 (single isomer, unassigned; enantiomer 2) [Example 39, (+)-4-fluoro-7-{3-[(6-fluoronaphthalen-1-yl)oxy]propyl}-2,3,14-trimethyl-13,13-dioxo-10,11,12,13,14,15-hexahydro-2H-13lambda^6-pyrazolo[3′,4′:4,5][1,2,8]thiadiazacycloundecino-[6,7,8-hi]indole-8-carboxylic acid (Enantiomer 2)]	6.7e-07 M	> 20 µM	3.3e-06 M and 5.1e-06 M		
Cc1c2c(nn1C)C(CCN1CCOCC1)N(C)S(=O)(=O)CCCn1c(C(=O)O)c(CCCOc3cccc4cc(F)ccc34)c3ccc(Cl)c-2c31 (single isomer, unassigned; enantiomer 1) [Example 66, 4-chloro-7-{3-[(6-fluoronaphthalen-1-yl)oxy]propyl}-2,3,14-trimethyl-15-[2-(morpholin-4-yl)ethyl]-13,13-dioxo-10,11,12,13,14,15-hexahydro-2H-13lambda^6-pyrazolo[3′,4′:4,5][1,2,8]thiadiazacycloundecino[6,7,8-hi]indole-8-carboxylic acid (Enantiomer 1)]	8.5e-06 M	> 20 µM	> 3.3e-05 M		
Cc1c2c(nn1C)C(N1CCOCC1)CCN(C)S(=O)(=O)CCCn1c(C(=O)O)c(CCCOc3cccc4cc(F)ccc34)c3ccc(Cl)c-2c31 (racemic) [Example 47, (rac)-15-chloro-1-(3-((6-fluoronaphthalen-1-yl)oxy)propyl)-8,13,14-trimethyl-11-(rac)-morpholino-5,6,9,10,11,13-hexahydro-4H,8H-pyrazolo[3′,4′:6,7][1]thia[2,10]diazacyclotridecino[8,9,10-hi]indole-2-carboxylic acid 7,7-dioxide (Mixture of Stereoisomers)]		> 20 µM	1.2e-05 M	3.4e-07 M	8e-06 M
Cc1c2c(nn1C)CNS(=O)(=O)CCCn1c(C(=O)O)c(CCCOc3cccc4cc(F)ccc34)c3ccc(Cl)c-2c31 (single isomer, unassigned; enantiomer 2) [Example 52, 4-chloro-7-{3-[(6-fluoronaphthalen-1-yl)oxy]propyl}-2,3-dimethyl-13,13-dioxo-10,11,12,13,14,15-hexahydro-2H-13lambda^6-pyrazolo[3′,4′:4,5][1,2,8]thiadiazacycloundecino[6,7,8-hi]indole-8-carboxylic acid (Enantiomer 2)]	1.7e-05 M	> 20 µM	> 3.3e-05 M		
CCc1c2c(nn1C)C(CCC1CCOCC1)N(C)S(=O)(=O)CCCn1c(C(=O)O)c(CCCOc3cccc4cc(F)ccc34)c3ccc(Cl)c-2c31 (racemic) [Example 59, (rac)-4-chloro-3-ethyl-7-{3-[(6-fluoro-1-naphthyl)oxy]propyl}-2,14-dimethyl-15-[2-(tetrahydro-2H-pyran-4-yl)ethyl]-11,12,14,15-tetrahydro-2H,10H-pyrazolo[3′,4′:4,5][1,2,8]thiadiazacycloundecino[6,7,8-hi]indole-8-carboxylic acid 13,13-dioxide (Racemate 2)]	1e-07 M	17 µM	6e-07 M		
CCc1c2c(nn1C)C(CCC1CCOCC1)N(C)S(=O)(=O)CCCn1c(C(=O)O)c(CCCOc3cccc4cc(F)ccc34)c3ccc(Cl)c-2c31 (single isomer, unassigned; enantiomer 4) [Example 64, (−)-4-chloro-3-ethyl-7-{3-[(6-fluoronaphthalen-1-yl)oxy]propyl}-2,14-dimethyl-15-[2-(oxan-4-yl)ethyl]-13,13-dioxo-10,11,12,13,14,15-hexahydro-2H-13lambda^6-pyrazolo[3′,4′:4,5][1,2,8]thiadiazacycloundecino[6,7,8-hi]indole-8-carboxylic acid (Enantiomer 4)]	2.9e-06 M	> 20 µM	1.1e-05 M		
Cc1c2c(nn1C)CN(C1CC1)S(=O)(=O)CCCn1c(C(=O)O)c(CCCOc3cccc4cc(F)ccc34)c3ccc(Cl)c-2c31 (racemic) [Example 41, (rac)-4-chloro-14-cyclopropyl-7-{3-[(6-fluoro-1-naphthyl)oxy]propyl}-2,3-dimethyl-11,12,14,15-tetrahydro-2H,10H-pyrazolo[3′,4′:4,5][1,2,8]thiadiazacycloundecino[6,7,8-hi]indole-8-carboxylic acid 13,13-dioxide]	1.7e-06 M	19 µM	3.9e-06 M		
Cc1c2c(nn1C)CN(C)S(=O)(=O)CCCn1c(C(=O)O)c(CCCOc3cccc4cc(F)ccc34)c3ccc(F)c-2c31 (single isomer, unassigned; enantiomer 1) [Example 38, (−)-4-fluoro-7-{3-[(6-fluoronaphthalen-1-yl)oxy]propyl}-2,3,14-trimethyl-13,13-dioxo-10,11,12,13,14,15-hexahydro-2H-13lambda^6-pyrazolo[3′,4′:4,5][1,2,8]thiadiazacycloundecino-[6,7,8-hi]indole-8-carboxylic acid (Enantiomer 1)]	2.1e-05 M	> 20 µM	2.7e-05 M		
Cc1c2c(nn1C)CN(C1CC1)S(=O)(=O)CCCn1c(C(=O)O)c(CCCOc3cccc4ccccc34)c3ccc(Cl)c-2c31 [Example 40, (rac)-4-chloro-14-cyclopropyl-2,3-dimethyl-7-[3-(1-naphthyloxy)propyl]-11,12,14,15-tetrahydro-2H,10H-pyrazolo[3′,4′:4,5][1,2,8]thiadiazacycloundecino[6,7,8-hi]indole-8-carboxylic acid 13,13-dioxide]	3.9e-06 M	> 20 µM	7.2e-06 M		
CCc1c2c(nn1C)CN(C)S(=O)(=O)CCCn1c(C(=O)O)c(CCCOc3cccc4cc(F)ccc34)c3ccc(Cl)c-2c31 (single isomer, unassigned; enantiomer 1) [Example 36, (+)-4-chloro-3-ethyl-7-{3-[(6-fluoronaphthalen-1-yl)oxy]propyl}-2,14-dimethyl-13,13-dioxo-10,11,12,13,14,15-hexahydro-2H-13lambda^6-pyrazolo[3′,4′:4,5][1,2,8]thiadiazacycloundecino-[6,7,8-hi]indole-8-carboxylic acid (Enantiomer 1)]	2.4e-07 M	18 µM	1.7e-06 M and 1.9e-06 M		
Cc1c2c(nn1C)CN(C1CC1)S(=O)(=O)CCCn1c(C(=O)O)c(CCCOc3cccc4cc(F)ccc34)c3ccc(Cl)c-2c31 (single isomer, unassigned; enantiomer 2) [Example 43, (+)-4-chloro-14-cyclopropyl-7-{3-[(6-fluoro-1-naphthyl)oxy]propyl}-2,3-dimethyl-11,12,14,15-tetrahydro-2H,10H-pyrazolo[3′,4′:4,5][1,2,8]thiadiazacycloundecino[6,7,8-hi]indole-8-carboxylic acid 13,13-dioxide N-diethylamine salt (Enantiomer 2)]	1.3e-05 M	> 20 µM	> 3.3e-05 M		
Cc1c2c(nn1C)C(CCN1CCOCC1)N(C)S(=O)(=O)CCCn1c(C(=O)O)c(CCCOc3cccc4ccccc34)c3cccc-2c31 (racemic) [Example 44, (rac)-2,3,14-trimethyl-15-[2-(rac)-(morpholin-4-yl)ethyl]-7-[3-(1-naphthyloxy)propyl]-11,12,14,15-tetrahydro-2H,10H-pyrazolo[3′,4′:4,5][1,2,8]thiadiazacycloundecino[6,7,8-hi]indole-8-carboxylic acid 13,13-dioxide (Mixture of Stereoisomers)]		> 20 µM		2.6e-06 M	1.2e-05 M
Cc1c2c(nn1C)C(CCN1CCOCC1)N(C)S(=O)(=O)CCCn1c(C(=O)O)c(CCCOc3cccc4ccccc34)c3cccc-2c31 (single isomer, unassigned; enantiomer 1) [Example 45, 2,3,14-trimethyl-15-[2-(morpholin-4-yl)ethyl]-7-{3-[(naphthalen-1-yl)oxy]propyl}-13,13-dioxo-10,11,12,13,14,15-hexahydro-2H-13lambda^6-pyrazolo[3′,4′:4,5][1,2,8]thiadiazacycloundecino[6,7,8-hi]indole-8-carboxylic acid N-ethylethanamine Salt (Enantiomer 1)]	1.7e-05 M	> 20 µM	> 3.3e-05 M		
Cc1c2c(nn1C)C(CCN1CCOCC1)N(C)S(=O)(=O)CCCn1c(C(=O)O)c(CCCOc3cccc4cc(F)ccc34)c3ccc(Cl)c-2c31 (racemic) [Example 48, (rac)-4-chloro-7-{3-[(6-fluoro-1-naphthyl)oxy]propyl}-2,3,14-trimethyl-15-(rac)-[2-(morpholin-4-yl)ethyl]-11,12,14,15-tetrahydro-2H,10H-pyrazolo[3′,4′:4,5][1,2,8]thiadiazacycloundecino[6,7,8-hi]indole-8-carboxylic acid 13,13-dioxide (Mixture of Stereoisomers)]	1.2e-08 M	> 20 µM	9.8e-07 M and 9.3e-07 M		

— patent US11401278B2, “Macrocyclic indole derivatives” (The Broad Institute, Inc., priority 2017, dated 2022)
